Series [1] deals with pp28-luciferase HCMV Towne. Nature of the series: microbe, parasite or virus in culture. The series is classed as cell-based, human cytomegalovirus (HCMV).
Source text: A GCV-resistant pp28-luciferase HCMV strain, with a C607Y mutation in UL97 was also used. The recombinant viruses express luciferase under the control of the late CMV gene promoter, pp28. […] The recombinant viruses provide a highly-sensitive and reproducible reporter system which correlates with the classic plaque reduction assay. […] Human herpes virus strains were: luciferase HSV1-KOS/Dlux/oriS and clinical isolates of HSV2.
Cell culture, virus infection and anti-viral assays. […] Infection with HCMV or HSV was performed in HFFs, and infection with mouse CMV was performed in MEFs. For HCMV, cells were seeded in either a 96-well plate or 100 mm culture plates (Corning Costar, Sigma Aldrich) at 0.5 or 2 million cells/plate. Following 90 minute adsorption, media was removed and cells were washed with PBS. Media containing 4% FBS and compounds were added to each well. Infected treated HFFs were collected at 72 hpi and lysates were assayed for luciferase activity using a luciferase assay kit (Promega, Madison, WI) on GloMax®-Multi+Detection System (Promega). In second cycle assays, supernatants were collected from all conditions of the first cycle at 96 hpi and used for infection of fresh HFFs in 96-well-plates. […] For HSV1-KOS/Dlux/oriS, a luciferase assay was performed at 24 hpi. Plaque assays were performed with clinical isolates of HSV2 and HCMV Towne. […] Following virus adsorption (60 min and 90 min for HSV and HCMV, respectively), virus was aspirated, and DMEM containing 4% fetal bovine serum (FBS) with (for HSV) or without (for HCMV) 0.5% carboxymethyl-cellulose, were added with the compounds at indicated concentrations into triplicate wells. After incubation at 37° C. for 10 days (for HCMV) or 2 days (for HSV), the overlay was removed and plaques were counted after crystal violet staining.
In series [2] the test system is HSV-1 (luciferase HSV1-KOS/Dlux/oriS). Put plainly: HSV-1 luciferase assay in HFFs. The series is classed as cell-based, herpes simplex virus 1. To be noted: nM concentrations. From the text: (§1) Cell culture, virus infection and anti-viral assays.
Series [3] deals with HSV-2 (clinical isolates). Put plainly: HSV-2 plaque assay in HFFs. The series is classed as cell-based, herpes simplex virus 2. To be noted: nM concentrations.
Source text: as §1

In series [4] the test system is pp28-luciferase HCMV Towne. Nature of the series: Drug combination emetine + GCV, Bliss model. To be noted: combined with ganciclovir (GCV), dihydrochloride hydrate. The series is classed as cell-based, human cytomegalovirus (HCMV). On the procedure:
Drug combination. The combined inhibitory effect of compounds on HCMV replication was determined in infected HFFs. A dose response curve was first generated for each compound; the EC50 and slope were calculated. […] The Bliss model was used for quantification of the effect of two compounds on HCMV replication (40). In this model, drug combination represents the product of two probabilistically independent events as described in the following equation (41): […]
The combined effect of two inhibitors (FU, fractional unaffected) is computed as the product of individual effects of the two inhibitors, FU1 and FU2. If the ratio of observed fold inhibition divided by the expected fold inhibition is greater than 1, the compounds are synergistic. If the ratio is less than 1, the combination is considered antagonistic, and if it equals to 1 the combination is additive.

For the next series, the system named is p21 mRNA. Put plainly: qRT-PCR for p21 in infected HFFs. Type of series: cell-based, human. To be noted: contact-inhibited cells, emetine 75 nM, p<0.01. The text has this: RNA isolation and real time quantitative reverse transcriptase (qRT) PCR. Total RNA was isolated from cultured cells using RNeasy Mini kit (Qiagen, Georgetown, MD) according to manufacturer's instructions. RevertAid first strand cDNA synthesis kit (Fermentas life sciences, Cromwell Park, MD) was used to synthesize first strand cDNA from total RNA using oligo-dT primers. Negative reverse-transcriptase (−RT) reactions were included to ensure the specificity of qRT-PCR reactions. Synthesis of first strand cDNA from mRNA template was carried out at 42° C. for 1 h. Quantitative RT-PCR (qRT-PCR) was performed using specific primers for p21 (F: 5′ […] 3′ (SEQ ID NO:3); R: 5′ […] 3′) (SEQ ID NO:4) and SYBR green (Fermentas life science) with two-step cycling protocol (95° C. for 15 s, 60° C. for 1 min). Reactions were performed in triplicates and GAPDH (F: 5′ […] 3′ (SEQ ID NO:5); R: 5′ […] 3′ (SEQ ID NO:6)) was used as the internal control.
For orientation: In qPCR the cycle at which signal appears reflects the starting amount.

Another series has as its system MDM2-p53. Nature of the series: Co-immunoprecipitation of MDM2 and p53; MDM2 and p53 expression. Type of series: cell-based, human. As to conditions: contact-inhibited infected cells. The text has this:
SDS-polyacrylamide gel electrophoresis and immunoblot analysis. Cell lysates were quantified for protein content using bicinchoninic acid (BCA) protein assay kit (Pierce Chemical, Rockford, IL). Equivalent amount of proteins were used for Western blot analysis as described previously. Protein bands were visualized by chemiluminescence using Western Blotting Luminol Reagent (Santa Cruz Biotechnology, Santa Cruz, CA). The following antibodies were used for detection of HCMV proteins: mouse anti-IE1 and IE2, (MAb810); mouse anti-UL44 (Santa Cruz biotechnology Santa Cruz, CA); mouse monoclonal anti-pp65 (Vector laboratories, Burlingame, CA); mouse monoclonal anti-β-actin antibody (Millipore, Billerica, MA); rabbit polyclonal anti-RPS14 and mouse monoclonal anti-MDM2 (AbCam, Cambridge, UK), mouse monoclonal anti-p53 (Santa Cruz, CA); horseradish peroxidase (HRP)-conjugated goat anti-rabbit IgG (Cell Signaling); and HRP-conjugated sheep anti-mouse IgG, (GE Healthcare, Waukesha, WI). For detection of co-immunoprecipitated proteins, protein A-HRP conjugate (Cell Signaling Technologies, Beverly, MA) was used as secondary antibody to eliminate the interfering IgG bands.
Co-immunoprecipitation (IP) and immunoblotting. Non-infected, infected or emetine-treated HFFs were treated with MG132 (10 μM) for 12 h. […] 1 mg of lysate was precleared with bead slurry for 30 min. The precleared lysates were incubated with anti-MDM2 (2 μg) antibody overnight. The antibody complexes were isolated using protein A/G beads (Santa Cruz), washed three times with 50% IP buffer. The immunoprecipitate—protein A/G beads were boiled in SDS sample buffer, and the supernatant was analyzed on SDS-PAGE gels after immunoblotting as described previously. […] Reverse IPs were performed by pulling down the precleared lysates with either anti-p53 antibody or anti-RPS14 antibody and detected with MDM2. […] In other experiments, transfected or treated HEK293 cell lysates were pulled-down with anti-IE2 antibody and detected with anti-MDM2 antibody and vice-versa for reverse IP.

Series [5] has as its system GCV-resistant pp28-luciferase HCMV (C607Y mutation in UL97). As to conditions: nM concentrations.
Experimental: Viruses. The pp28-luciferase HCMV Towne strain was constructed as previously described. A GCV-resistant pp28-luciferase HCMV strain, with a C607Y mutation in UL97 was also used. The recombinant viruses express luciferase under the control of the late CMV gene promoter, pp28. Luciferase expression is strongly activated 48-72 hours post infection (hpi). The recombinant viruses provide a highly-sensitive and reproducible reporter system which correlates with the classic plaque reduction assay.
Cell culture, virus infection and anti-viral assays. Human Foreskin Fibroblasts (HFFs) passage 12-16 (ATCC, CRL-2088™) and mouse embryonic fibroblasts (MEFs) passage 9-14 (ATCC, CRL-1658™) were grown in Dulbecco's Modified Eagle Medium (DMEM) containing 10% fetal bovine serum (FBS) (Gibco, Carlsbad, CA) in a 5% CO2 incubator at 37° C. Infection with HCMV or HSV was performed in HFFs, and infection with mouse CMV was performed in MEFs. For HCMV, cells were seeded in either a 96-well plate or 100 mm culture plates (Corning Costar, Sigma Aldrich) at 0.5 or 2 million cells/plate. Following 90 minute adsorption, media was removed and cells were washed with PBS. Media containing 4% FBS and compounds were added to each well. […] Luciferase activity was measured 72 h following second cycle infection.
Series [6] is described as follows: Cell viability (MTT) assay. As to conditions: human, non-infected HFFs.

Counter-ions that a name gives are not always drawn.

As usually defined, the EC50 is the concentration that produces a half-maximal response. Usually CC50 stands for the concentration giving 50% cytotoxicity. `CC[C@H]1CN2CCc3cc(OC)c(OC)cc3[C@@H]2C[C@@H]1C[C@H]1NCCc2cc(OC)c(OC)cc21` [emetine, emetine dihydrochloride hydrate]: the “HCMV inhibition in relation to cell density at time of infection” value in series [1] (HFFs 0.5-2 million cells/plate, emetine 75 nM, GCV 5 μM) is “significant virus inhibition was observed only at higher cell density”. The EC50 in series [1] (Human betaherpesvirus 5, read-out: EC50 against HCMV) turned out to be 0.04 µM. Besides, the “reduction in normalized luciferase activity at low cell density” value in series [1] (emetine 75 nM, 0.5 million cells/plate in 96-well plate) is given as “no significant reduction”. Further, in series [1] (luciferase at 72 hpi), the “concentration that fully inhibits HCMV” value is recorded as 75 nM. The “inhibition of HSV-1” value in series [2] is given as “inhibited”. In addition, in series [3], the “inhibition of HSV-2” value is “inhibited”. In addition, the “combined effect of emetine and GCV on virus inhibition” value in series [4] is on record as “synergistic virus inhibition”. The “increase in p21 mRNA” value in the series on p21 mRNA (24 hpi) stood at 5.4 fold. The “increase in p21 mRNA” value in the series on p21 mRNA (72 hpi) was 6.7 fold. Also, in the series with MDM2-p53 (72 hpi), the MDM2 expression entry is given as “increased” and the p53 expression entry is “increased”. In the series with MDM2-p53 (not cycling cells, MG132), the “HCMV-induced interaction between MDM2 and p53” value is reported as “disrupted”. Moreover, the “inhibition of GCV-resistant HCMV” value in series [5] is reported as “inhibited”. Further, the CC50 at 72 h in series [6] amounted to 8 µM.

The record behind these values is US12208093B2 (THE JOHNS HOPKINS UNIVERSITY, priority 2016, dated 2025).
